Results taken from article PMC6212778, “Site-specific amino acid substitution in dodecameric peptides determines the stability and unfolding of c-MYC quadruplex promoting apoptosis in cancer cells” (Nucleic Acids Research, 2018).
“Also recorded” adds a separate entry of the source.

Key:
[1] = system: Nucleolin at c-MYC-NHE III1 in MCF-7 cells; test: ChIP, Nucleolin occupancy at c-MYC-NHE III1; assay type: cell-based, human; conditions: MCF-7, 24 h, ChIP-qPCR versus IgG control
Procedure: (§1) Chromatin immunoprecipitation studies are conducted to monitor the promoter occupancies of different transcription factors (Sp1, NM23-H2 and Nucleolin) and RNA polymerase II (RNAPII) on the region encompassing c-MYC-NHE III1 ([69]). We have grown MCF-7 cells in 10-cm^2 culture flask at a density of 1 × 10^6 cells per well and treated with the synthetic peptides (FK13, KR12A, KR12B, and KR12C) for 24 hours. Cells are cross-linked with 1% formaldehyde at room temperature for 10 min and the reaction is stopped by 0.125 M glycine at room temperature for 10 min. Fixed cells are lysed and sonicated to yield DNA fragments of 200–500 bp. ChIP-grade antibodies (NM23-H2 (L-15) Antibody (sc-14790, Santa Cruz), and Anti-Nucleolin antibody [4E2]-ChIP Grade (Abcam)), Anti Sp1 antibody (Sigma), and Rpb1 (RNAPII subunit b1) CTD (C-terminal domain) 4H8 antibody are added to the sonicated chromatin and incubated overnight at 4°C. Then, 10 μl protein A magnetic beads (Dynal, Invitrogen), previously washed in RIPA buffer are added to the samples and bead–protein complexes are washed thrice with RIPA buffer and twice with TE buffer. The genomic DNA is eluted for 2 h at 68°C in complete elution Buffer (20 mM Tris, pH 7.5, 5 mM EDTA, 50 mM NaCl, 1% SDS and 50 μg/ml proteinase K) and further combined with the DNA eluted from second elution for 10 min at 68°C in 100 μl of elution buffer (20 mM Tris, pH 7.5, 5 mM EDTA and 50 mM NaCl). ChIP-isolated DNA is purified using MinElute Purification kit (Qiagen) and is amplified by PCR (Polymerase Chain Reaction) reactions using forward and reverse primers ([70]) (Supplementary Table S4) specific to the quadruplex-enriched regions at c-MYC promoter and Phusion® High-Fidelity PCR Kit (NEB). Anti-rabbit IgG is employed for mock immunoprecipitation (Negative control).

[2] = system: c-MYC transcripts in MCF-7 cells; test: Real time PCR of c-MYC transcripts; assay type: cell-based, human; conditions: MCF-7, 24 h, qPCR normalised to GAPDH
Procedure: To inspect the transcription inhibitory roles of peptides in c-MYC, BCL-2, VEGF-A and KRAS oncogenes having putative quadruplexes in their promoters, we performed real time polymerase chain reactions. MCF-7 cells are sub-cultured into 6-well microtiter plates at a density of 1 × 10^6 cells per well and treated with different concentrations of peptides (FK13, KR12A, KR12B and KR12C) for 24 hours. Total RNA is isolated from both untreated and treated cells using TRIzol method (Invitrogen) as per manufacturer's instructions. 2 μg of total RNA is processed for cDNA synthesis and reverse transcribed using a Super MuLV RT Kit (Biobharati Life Sciences Pvt. Ltd.). Real time PCR is performed using Maxima SYBR Green/ROX qPCR Master Mix (2×) (Thermo-Scientific) as per manufacturer's protocol. Housekeeping gene, GAPDH is used as an internal control to normalize the variability in c-MYC mRNA expression levels (Supplementary information Section 1). PCR primers are designed using Primer-BLAST, NCBI, and analyzed in OligoAnalyser 3.1-IDT (Supplementary Table S2).

[3] = system: Sp1 at c-MYC-NHE III1 in MCF-7 cells; test: ChIP, Sp1 occupancy at c-MYC-NHE III1; assay type: cell-based, human; conditions: MCF-7, 24 h, ChIP-qPCR versus IgG control
Procedure: as §1

[4] = system: c-MYC promoter with Pu19 isomer in MCF-7 cells; test: Dual-luciferase assay, c-MYC promoter under control of Pu19; assay type: cell-based, human; conditions: MCF-7, 24 h peptide treatment
Procedure: (§2) MCF-7 cells are sub-cultured into 24-well microtiter plates at a cell density of 1 × 10^5 cells/well. Reporter constructs (c-MYC, BCL-2, KRAS and VEGF-A) (500 ng) with and/or without the G-quadruplex scaffolds triggering the expression of Renilla luciferase are co-transfected with 50 ng of pGL3-control vectors (Promega) (used as internal control), encoding firefly luciferase into MCF-7 cells using Lipofectamine® 3000 transfection reagent (Thermo-Fisher Scientific) following manufacturer's recommendations (Supplementary information Section 1). Twenty four hours post-transfection, cells are treated with peptides (FK13, KR12A, KR12B, KR12C, KR12D and KR12E) at an increasing concentration gradient.
(§3) Dual-luciferase assays are performed to examine the intracellular selectivity of peptides for c-MYC quadruplex isomers (Pu27, Myc22 and Pu19) over other oncogenic quadruplexes (BCL-2, VEGF-A and KRAS) of different topologies. The role of peptide-quadruplex complex in oncogene promoter activation is investigated in contrast to the GQ-null promoter constructs into MCF-7 cells ([67]). After 24 h of peptide treatment, cells are washed and lysed into 100 μl 1× Passive lysis buffer (PLB) for 15 min at room temperature. Renilla and firefly Luciferase activities in 25 μl lysate are quantified by Dual-Luciferase® reporter assay system (Promega) as per manufacturer's recommendations. Renilla luciferase enzyme activity is normalized to that of the firefly luciferase activity and luminescence of the peptide-treated samples are normalized to the untreated ones, which yield the fold induction values for Renilla activities by different quadruplex structures in presence and absence of synthetic peptides. Luminescence of each sample is detected in GloMax® 20/20 Single-Tube Luminometer (Promega) in triplicates and averaged from three independent experiments.

c-MYC quadruplex Pu27 = test: CD melting of free and peptide-bound Pu27; assay type: binding, human
Procedure: To understand the role of peptides (FK13, KR12A, KR12B, KR12C, KR12D and KR12E) in stabilizing native and truncated isomers of c-MYC G-quadruplex, we have performed temperature-driven CD melting experiments for free and peptide-bound complexes in JASCO-J815 CD spectrometer. We have gradually titrated the peptides into 10 μM of putative quadruplexes and acquired the spectra after 5 min of peptide addition to allow complex formation and equilibration. Samples are heated from 20 to 95°C having the temperature gradient and the delay time of 2.5°C/min and 150 s respectively. Since the quadruplexes unfold at higher temperatures and revert back to their initial conformations upon renaturation, we have assumed a ‘two-state transition’ model (folded and unfolded) to analyze the melting curves and estimated the melting temperatures (Tm) by fitting the data points into sigmoidal curves (Supplementary information Section 1).

[5] = system: VEGF-A promoter (VEGF-A-GQ) in MCF-7 cells; test: Dual-luciferase assay, VEGF-A promoter with VEGF-A-GQ; assay type: cell-based, human; conditions: MCF-7, 24 h, peptide 0–60 μM
Procedure: as §2, §3

[6] = system: KRAS promoter (KRAS-GQ) in MCF-7 cells; test: Dual-luciferase assay, KRAS promoter with KRAS-GQ; assay type: cell-based, human; conditions: MCF-7, 24 h; for KRAS promoter activity: peptide 0–60 μM
Procedure: as §2, §3

[7] = system: NM23-H2 at c-MYC-NHE III1 in MCF-7 cells; test: ChIP, NM23-H2 occupancy at c-MYC-NHE III1; assay type: cell-based, human; conditions: MCF-7, 24 h, ChIP-qPCR versus IgG control
Procedure: as §1

[8] = system: c-MYC promoter with Myc22 isomer in MCF-7 cells; test: Dual-luciferase assay, c-MYC promoter under control of Myc22; assay type: cell-based, human; conditions: MCF-7, 24 h peptide treatment
Procedure: as §2, §3

[9] = 10 μM quadruplex, two-state model

Row | Substance | Nucleolin occupancy at c-MYC-NHE III1 [1] | c-MYC transcription, fold repression [2] [fold] | Sp1 occupancy at c-MYC-NHE III1 [3] | c-MYC promoter activation under control of Pu19 [4] | effect on thermal stability of Pu27 (c-MYC quadruplex Pu27) | VEGF-A promoter activity [5] | KRAS promoter activity [6] | NM23-H2 occupancy at c-MYC-NHE III1 [7] | c-MYC transcription [2] | c-MYC promoter activation under control of Myc22 [8] | decrease of the Tm of Pu27 upon peptide binding (c-MYC quadruplex Pu27; [9]) [°C] | KRAS promoter activity, fold inhibition ([6]; at higher concentration) [fold] | c-MYC promoter attrition in presence of Myc22, fold [8] [fold] | c-MYC promoter attrition in presence of Pu19, fold [4] [fold] | rise in the Tm of Pu27 upon peptide binding (c-MYC quadruplex Pu27; [9]) [°C]
1 | N – KRIVKRIKKWLR – C [KR12B, dodecameric mutant peptide derived from FK13 / LL37] | depleted the abundance | ~5 | no role in Sp1 occupancy | weaker | did not significantly induce thermal stability | strongly inhibited | inverse regulation | depleted the abundance | – | – | – | – | – | – | –
2 | N – KRIVQRIKKWLR – C [KR12A, dodecameric mutant peptide derived from FK13 / LL37] | did not significantly affect | – | slightly enriched | attenuated | – | significantly downregulate | – | slightly enriched | downregulated c-MYC transcription in a dose-dependent manner | attenuated | ~30 | ~2.5 | – | – | –
3 | N – KRIVKLIKKWLR – C [KR12C] | depleted | ~5 | depleted | – | – | no significant impact | no significant impact | depleted | – | – | – | – | ~5 | ~5 | 9
4 | N – FKRIVQRIKDFLR – C [FK13] | no role | – | no role | attenuated | – | significantly downregulate; also recorded: strongly inhibited | – | no role | did not downregulate c-MYC transcription | attenuated | – | – | – | – | –
